According to patent US20080292733A1, “Antioxidant and Fe2+ Chelating Properties of Herbal Extracts” (priority 2005, published 2008):
Read-outs that look alike come from different tables or passages of the source.

Tests used:
[1] = Fe^2+ chelation assay (ferrozine, cell-free)
[2] = tested on: SH—SY5Y cells; assay: Neuroblastoma cell viability assay (WST-1), SH—SY5Y; format: cell-based, human
[3] = tested on: N1E 115 cells; assay: Neuroblastoma cell viability assay (WST-1), N1E 115; format: cell-based, murine; conditions: N1E 115, 96 hours
[4] = cell-free, 0.5 mM FeSO4, 1 mM ferrozine, titration curves, absorbance 562 nm
[5] = SH—SY5Y, 96 hours, dose-response

CC(=O)N(O)CCCCCNC(=O)CCC(=O)N(O)CCCCCNC(=O)CCC(=O)N(O)CCCCCN [DFO, desferroxamine, reference compound]
inhibition of Fe(ferrozine)3^2+ complex formation [1, 4]: able to prevent Fe(ferrozine)3^2+ complex formation
effect on cell number (dose-response curve) [2, 5]: biphasic effects
effect on cell number (dose-response curve) [3]: suppress neuroblastoma cell number

CC(C)=CCC[C@](C)(O[C@@H]1O[C@H](CO[C@@H]2O[C@H](CO)[C@@H](O)[C@H](O)[C@H]2O)[C@@H](O)[C@H](O)[C@H]1O)[C@H]1CC[C@]2(C)[C@@H]1[C@H](O)C[C@@H]1[C@@]3(C)CC[C@H](O[C@@H]4O[C@H](CO)[C@@H](O)[C@H](O)[C@H]4O[C@@H]4O[C@H](CO)[C@@H](O)[C@H](O)[C@H]4O)C(C)(C)[C@@H]3CC[C@]12C [Rb1, ginsenoside Rb1]
inhibition of Fe(ferrozine)3^2+ complex formation [1, 4]: demonstrated the ability to inhibit Fe^2+ interaction with ferrozine

CC(C)=CCC[C@](C)(O[C@@H]1O[C@H](CO[C@@H]2O[C@@H](CO)[C@H](O)[C@H]2O)[C@@H](O)[C@H](O)[C@H]1O)[C@H]1CC[C@]2(C)[C@@H]1[C@H](O)C[C@@H]1[C@@]3(C)CC[C@H](O[C@@H]4O[C@H](CO)[C@@H](O)[C@H](O)[C@H]4O[C@@H]4O[C@H](CO)[C@@H](O)[C@H](O)[C@H]4O)C(C)(C)[C@@H]3CC[C@]12C [Rc, ginsenoside Rc]
inhibition of Fe(ferrozine)3^2+ complex formation [1, 4]: demonstrated the ability to inhibit Fe^2+ interaction with ferrozine

CC(C)=CCC[C@](C)(O[C@@H]1O[C@H](CO)[C@@H](O)[C@H](O)[C@H]1O)[C@H]1CC[C@]2(C)[C@@H]1[C@H](O)C[C@@H]1[C@@]3(C)CC[C@H](O[C@@H]4O[C@H](CO)[C@@H](O)[C@H](O)[C@H]4O[C@@H]4O[C@H](CO)[C@@H](O)[C@H](O)[C@H]4O)C(C)(C)[C@@H]3CC[C@]12C [Rd, ginsenoside Rd]
inhibition of Fe(ferrozine)3^2+ complex formation [1, 4]: demonstrated the ability to inhibit Fe^2+ interaction with ferrozine

C[C@@H]1C(=O)O[C@H]2C[C@@]34[C@H]5C[C@@H](C(C)(C)C)[C@]36[C@@H](OC(=O)[C@@H]6O)O[C@@]4(C(=O)O5)[C@]21O [ginkgolide A]
inhibition of Fe(ferrozine)3^2+ complex formation [1]: no activity
effect on cell number (dose-response curve) [2, 5]: Only quercetin demonstrated significant inhibition of cell number
effect on cell number (dose-response curve) [3]: Only quercetin demonstrated significant inhibition of cell number

CC1C(=O)OC2C(O)C34C5CC(C(C)(C)C)C36C(OC(=O)C6O)OC4(C(=O)O5)C12O (stereo not shown) [ginkgolide B]
inhibition of Fe(ferrozine)3^2+ complex formation [1, 4]: no activity
effect on cell number (dose-response curve) [2, 5]: Only quercetin demonstrated significant inhibition of cell number
effect on cell number (dose-response curve) [3]: Only quercetin demonstrated significant inhibition of cell number

CC(C)=CCC[C@]1(C)[C@@H](CC=C(C)C)C[C@@]2(CC=C(C)C)C(=O)[C@]1(C(=O)C(C)C)C(=O)C(CC=C(C)C)=C2O [hyperforin]
effect on cell number (dose-response curve) [2]: significant and dose-dependent suppression of cell number
effect on cell number (dose-response curve) [3]: significant and dose-dependent suppression of cell number

O=c1c(O)c(-c2ccc(O)c(O)c2)oc2cc(O)cc(O)c12 [quercetin]
inhibition of Fe(ferrozine)3^2+ complex formation [1, 4]: able to inhibit Fe(ferrozine)3^2+ complex formation
concentration at which significant (P<0.05) inhibition of cell number is first apparent ([2]; SH—SY5Y, 96 hours): 5 µg/mL
effect on cell number (dose-response curve) [2, 5]: significant inhibition of cell number
concentration at which significant (P<0.05) inhibition of cell number is first apparent [3]: 5 µg/mL
effect on cell number (dose-response curve) [3]: significant inhibition of cell number
